According to patent publication US10799480B2, “Calixpyrrole-based antitumor compounds” (Giam Pharma International sarl, priority 2016, dated 2020):
“Also recorded” adds a separate entry of the source.

How the values were obtained:
extrogen receptor GPER = extrogen receptor GPER (Homo sapiens, UniProt Q99527); conditions: literature; cited from earlier work
[1] = literature; cited from earlier work
ovary carcinoma SKOV-3 = assay: MTT test on ovary carcinoma SKOV-3 cell line; assay type: cell-based; conditions: for EC50: Homo sapiens, SK-OV-3, SKOV-3; for activity: SKOV-3, fragments
From the text: (§1) Cellular vitality tests have been performed by using the derivatives of Formulas VII, I and III on due ovary carcinoma lines (SKOV-3 and A2774), two mammary carcinoma lines (MCF-7 and MDAMB-231) and two pulmonary carcinoma lines (H727 and A549). The compounds of Formulas I and III have further been tested in liposomal nanoparticles (NP) in comparison with the pulmonary carcinoma lines H727. The pulmonary carcinoma lines have been used also as target for determining the genotoxicity of the compounds of Formulas I and III, for determining the type of cellular death, through flow cytometry analyses, and for a preliminary analysis in vivo with toxicity determination and pharmacy-kinetics estimation (compound from Formula I).
(§2) The macrocycles of Formulas VII, I and III have been used in MTT tests on cellular lines derive from ovary carcinoma. […] The selectivity shown by the derivative of Formula I compared with a specific cellular line surely needs to be further analyzed as regards its operating mechanism.
(§3) A series of MTT tests have been performed by using the derivatives of Formulas VI, VIII, II and IV (such compounds can be considered as possible fragments of the macrocycles of Formulas V, VII, I and III). […] The results of these MTT tests show how the cytotoxic activity of the compounds of the invention has to be ascribed to the complete structure of the macrocycle having the acetyl function and not to any isolated component thereof.

ovary carcinoma A2774 = assay: MTT test on ovary carcinoma A2774 cell line; assay type: cell-based
From the text: as §1, §2

mammary carcinoma MCF-7 = assay: MTT test on mammary carcinoma MCF-7 cell line; assay type: cell-based; conditions: Homo sapiens, MCF7
From the text: as §1
(§4) In particular, for both tumor cellular lines, the derivatives of Formulas I and III have EC50 of about 20 μM, while the derivative of Formula VII has a EC50 included between 20 and 30 μM, as shown in the graphs in FIG. 3 and FIG. 4.

[2] = test system: mammary carcinoma MDAMB-231; assay: MTT test on mammary carcinoma MDAMB-231 cell line; assay type: cell-based; conditions: Homo sapiens, MDA-MB-231
From the text: as §1, §4

pulmonary carcinoma H727 = assay: MTT test on pulmonary carcinoma H727 cell line; assay type: cell-based; conditions: H727, different concentrations, as such or in lipid nanoparticles (NP)
From the text: as §1
(§5) The derivatives of Formulas I and III have been used for a series of MTT tests at different concentrations, as such or from a formulation of lipid nanoparticles (NP), using cellular lines deriving from pulmonary carcinoma H727.

pulmonary carcinoma A549 [3] = assay: MTT test on pulmonary carcinoma A549 cell line; assay type: cell-based; conditions: for efficacy compared with Endoxan (cyclophosphamide): A549, various concentrations; for efficacy: A549
From the text: as §1, §5, §3

pulmonary carcinoma A549 [4] = assay: Flow cytometry analysis of type of cellular death; assay type: cell-based
From the text: as §1
The cellular lines A549 treated with the compound of Formula I show 38.80% of apoptosis (9.05% early apoptosis and 29.75% late apoptosis) compared with a 9.30% of necrosis. The same cells treated with the compound of Formula III show 23.45% of total apoptosis (10.25% early apoptosis and 13.20% late apoptosis) against 4.75% of necrosis.

pulmonary carcinoma A549 [5] = assay: COMET test (DNA fragmentation); assay type: cell-based; conditions: concentrations from 5 to 50 μM, with respect to standard K
From the text: These latter data are mainly affected by the fact that this technique is not able to detect dead cells, and, in case of compounds of Formulas I and III, such percentage, as previously seen, is relevant.

[6] = test system: DNA of pulmonary carcinoma A549 cells; assay: Receptor-DNA adducts through 32P marking; assay type: cell-based; conditions: A549, butanol enrichment
[7] = mouse, in vivo
From the text: (§6) A preliminary analysis for the toxicity in vivo has been performed by using the compound of Formula I on NJ mice. Due to the particularly hydrophobic nature of such derivative, after various attempts to determine the best solvent mixture, which is non-toxic for the animal, but which contains an adequate concentration of receptor, it has been decided to administer the compound using a mixture containing 10% of DMSO in olive oil. […] After 5 days, the mouse has been sacrificed and, through a HPLC/Mass analysis, the distribution of the compound inside the different compartments has been determined. The different tissues/organs (back sub-skin, spleen, omentum, heart, liver, brain, lung and kidney) have been removed, homogenized and analyzed. A high concentration of the compound of Formula I (determined through the computation of the peak area at m/z 546.31), corresponding to the analyzed compound [M-H]^−), has been observed in the injection site (Area 532.875) and in the spleen (Area 196.233), but the biggest amount has been discovered in the omentum (Area 1.237.999). Lower concentrations have been discovered in the kidney (Area 120.117), in the lung (Area 32.514) and in the heart (Area 29.443). A minimum amount of the compound has been detected in the liver (Area 11.293).

NJ mice = conditions: in vivo
From the text: as §6

Chain of extrogen receptor GPER (Q99527 whole entry): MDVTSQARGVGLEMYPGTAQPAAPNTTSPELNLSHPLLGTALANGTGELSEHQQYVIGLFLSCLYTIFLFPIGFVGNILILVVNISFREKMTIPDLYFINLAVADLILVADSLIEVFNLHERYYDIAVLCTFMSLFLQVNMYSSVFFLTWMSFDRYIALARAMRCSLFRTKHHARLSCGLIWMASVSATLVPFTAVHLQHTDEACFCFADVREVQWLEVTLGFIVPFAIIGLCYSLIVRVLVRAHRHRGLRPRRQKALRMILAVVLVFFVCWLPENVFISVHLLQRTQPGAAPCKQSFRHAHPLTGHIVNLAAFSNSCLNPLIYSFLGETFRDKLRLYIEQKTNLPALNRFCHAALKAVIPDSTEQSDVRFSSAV

In the case of `CC1(C)c2ccc([nH]2)C(C)(C)c2ccc([nH]2)C(C)(C)c2ccc([nH]2)C(C)(C)c2ccc1[nH]2` [meso-octametil-calix[4]pyrrole], the GPER inhibition (extrogen receptor GPER) is listed as “selective inhibitor of the extrogen receptor GPER” and the cytotoxicity [1] is listed as “has not appeared as cytotoxic”.
`CC(=O)Nc1cccc(C2(C)c3ccc([nH]3)C(C)(C)c3ccc([nH]3)C(C)(C)c3ccc([nH]3)C(C)(C)c3ccc2[nH]3)c1` [Formula III] gave an EC50 (ovary carcinoma SKOV-3) of about 15 µM, an EC50 (ovary carcinoma A2774) of about 15 µM and an EC50 (mammary carcinoma MCF-7) of about 20 µM. The EC50 [2] was about 20 µM, the “efficacy (cellular vitality)” value (pulmonary carcinoma H727) was “maximum efficacy already at the lowest doses being used (5 μM)” and the “efficacy compared with Endoxan (cyclophosphamide)” value (pulmonary carcinoma A549 [3]) was “even more efficient than the known chemotherapeutic drug Endoxan”. For the same compound, the early apoptosis (pulmonary carcinoma A549 [4]) was 10.25%, the late apoptosis (pulmonary carcinoma A549 [4]) was 13.20% and the main death mechanism (pulmonary carcinoma A549 [4]) was “apoptosis is the main death mechanism”. The necrosis (pulmonary carcinoma A549 [4]) was 4.75%, the total apoptosis (pulmonary carcinoma A549 [4]) was 23.45% and the “fragmentation of DNA” value (pulmonary carcinoma A549 [5]) was “have not given any fragmentation of DNA”. The “adducts with DNA / genotoxicity” value [6] was “adducts with DNA have been identified; also recorded: higher genotoxicity of the compound of Formula III with respect to the derivative of Formula I”.
In the case of `CC(c1ccc(N)cc1)(c1ccc[nH]1)c1ccc[nH]1` [Formula VI], the activity (ovary carcinoma SKOV-3) is reported as “inefficient”.
With `CC1(C)c2ccc([nH]2)C(C)(C)c2ccc([nH]2)C(C)(c2ccc(N)cc2)c2ccc([nH]2)C(C)(C)c2ccc1[nH]2` [Formula V] the efficacy (pulmonary carcinoma A549 [3]) was “seem not show any efficacy” and the “fragmentation of DNA” value (pulmonary carcinoma A549 [5]) was “a fragmentation is observed”.
Work on `CC(=O)Nc1ccc(C2(C)c3ccc([nH]3)C(C)(C)c3ccc([nH]3)C(C)(C)c3ccc([nH]3)C(C)(C)c3ccc2[nH]3)cc1` [Formula I] yielded an EC50 (ovary carcinoma SKOV-3) of 1 to 5 µM, an EC50 (ovary carcinoma A2774) of about 15 µM and an EC50 (mammary carcinoma MCF-7) of about 20 µM. For the same compound, the EC50 [2] was about 20 µM, the “efficacy (cellular vitality)” value (pulmonary carcinoma H727) was “maximum efficacy already at the lowest doses being used (5 μM)” and the “efficacy compared with Endoxan (cyclophosphamide)” value (pulmonary carcinoma A549 [3]) was “even more efficient than the known chemotherapeutic drug Endoxan”. The early apoptosis (pulmonary carcinoma A549 [4]) was 9.05%, the late apoptosis (pulmonary carcinoma A549 [4]) was 29.75% and the main death mechanism (pulmonary carcinoma A549 [4]) was “apoptosis is the main death mechanism”. The necrosis (pulmonary carcinoma A549 [4]) was 9.30%, the total apoptosis (pulmonary carcinoma A549 [4]) was 38.80% and the “fragmentation of DNA” value (pulmonary carcinoma A549 [5]) was “have not given any fragmentation of DNA”. The “adducts with DNA / genotoxicity” value [6] was “adducts with DNA have been identified”, the “peak area in the brain” value ([7]; NJ, 5 days) was 7.735 and the “peak area in the heart” value ([7]; NJ, 5 days) was 29.443. For the same compound, the “peak area in the injection site” value ([7]; NJ, 5 days) was 532.875, the “peak area in the kidney” value ([7]; NJ, 5 days) was 120.117 and the “peak area in the liver” value ([7]; NJ, 5 days) was 11.293. For the same compound, the “peak area in the lung” value ([7]; NJ, 5 days) was 32.514, the “peak area in the spleen” value ([7]; NJ, 5 days) was 196.233 and the “passing the hematic-encephalic barrier” value [7] was “actually capable of passing the hematic-encephalic barrier”. For the same compound, the “effects on the mouse” value (NJ mice; sc, 5 mg/kg) was “without discovering particular effects on the mouse” and the “effect on the animal” value (NJ mice; mouse, ip) was “has not show any apparent effect on the animal”.
With `CC(=O)Nc1ccc(C(C)(c2ccc[nH]2)c2ccc[nH]2)cc1` [Formula II] the efficacy (pulmonary carcinoma A549 [3]) was “have not shown any activity”.
In the case of `CC(=O)Nc1cccc(C(C)(c2ccc[nH]2)c2ccc[nH]2)c1` [Formula IV], the efficacy (pulmonary carcinoma A549 [3]) is reported as “have not shown any activity”.
With `CC(c1cccc(N)c1)(c1ccc[nH]1)c1ccc[nH]1` [Formula VIII] the activity (ovary carcinoma SKOV-3) was “inefficient”.
In the case of `CC1(C)c2ccc([nH]2)C(C)(C)c2ccc([nH]2)C(C)(c2cccc(N)c2)c2ccc([nH]2)C(C)(C)c2ccc1[nH]2` [Formula VII], the EC50 (ovary carcinoma SKOV-3) is reported as about 15 µM, the activity (ovary carcinoma A2774) is reported as “has not shown any activity” and the EC50 (mammary carcinoma MCF-7) is reported as 20 to 30 µM. The EC50 [2] was 20 to 30 µM, the efficacy (pulmonary carcinoma A549 [3]) was “seem not show any efficacy” and the “fragmentation of DNA” value (pulmonary carcinoma A549 [5]) was “a fragmentation is observed”.
